Source: ChEMBL document CHEMBL1130459, “Conformational preference of the 6-acetyl group in novel anticonvulsant trans 4S-benzamido-benzo[b]pyran-3R-ols” (Bioorg Med Chem Lett, 1997)

Columns and labels:
[1] = species: Mus musculus; assay: Compound was evaluated for its binding affinity at the anticonvulsant binding site by displacement of [3H]- SB 204269 from mouse forebrain membranes; parameters: species or system Brain, Membrane
[2] = tested on: Mus musculus; assay: Compound was tested in vivo for anticonvulsant activity in mouse MEST test (maximal electroshock seizure threshold) at a peroral dose of 10 mg/kg; format: functional; conditions: route oral
[3] = tested on: Mus musculus; assay: Compound was tested in vivo for anticonvulsant activity in mouse MEST test (maximal electroshock seizure threshold) at a peroral dose of 30 mg/kg; format: functional; conditions: route oral

| SMILES | Log Ki [1] | Activity [2] [%] | Activity [3] [%] |
| --- | --- | --- | --- |
| CC(=O)c1ccc2c(c1)[C@H](NC(=O)c1ccc(F)c(Cl)c1)[C@@H](O)C(C)(C)O2 | -7.91 | 138 |  |
| CC(=O)c1ccc2c(c1C)[C@H](NC(=O)c1ccc(F)cc1)[C@@H](O)C(C)(C)O2 | -5.02 |  |  |
| CC(=O)c1ccc2c(c1)[C@H](NC(=O)c1ccc(F)cc1)[C@@H](O)C(C)(C)O2 [CARABERSAT] | -7.32 |  |  |
| CC1(C)Oc2cc3c(cc2[C@H](NC(=O)c2ccc(F)c(Cl)c2)[C@H]1O)C(=O)CCC3 | -7.6 |  | 98 |
| CC1(C)Oc2ccc3c(c2[C@H](NC(=O)c2ccc(F)cc2)[C@H]1O)CCCC3=O | < -5 |  |  |
| CC(=O)c1cc2c(cc1C)OC(C)(C)[C@H](O)[C@H]2NC(=O)c1ccc(F)cc1 | -6.15 |  |  |
